Results as given in PubChem BioAssay (NCI).
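Assay format: 96-well plates, 48-hour exposure. The concentration for full growth arrest is given as TGI.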

Legend:
Assay in all cases: DTP human tumour cell line panel, 48 h
786-0 renal = tested on: 786-0 renal
A498 renal = tested on: A498 renal
A549 NSCLC = tested on: A549 NSCLC
ACHN renal = tested on: ACHN renal
CAKI-1 renal = tested on: CAKI-1 renal
CCRF-CEM leukemia = tested on: CCRF-CEM leukemia
COLO 205 colon = tested on: COLO 205 colon
DU-145 prostate = tested on: DU-145 prostate
EKVX NSCLC = tested on: EKVX NSCLC
HCC-2998 colon = tested on: HCC-2998 colon
HCT-15 colon = tested on: HCT-15 colon
HL-60(TB) leukemia = tested on: HL-60(TB) leukemia
HOP-62 NSCLC = tested on: HOP-62 NSCLC
HOP-92 NSCLC = tested on: HOP-92 NSCLC
HS 578T breast = tested on: HS 578T breast
HT29 colon = tested on: HT29 colon
IGROV1 ovarian = tested on: IGROV1 ovarian
K-562 leukemia = tested on: K-562 leukemia
KM12 colon = tested on: KM12 colon
LOX IMVI melanoma = tested on: LOX IMVI melanoma
M14 melanoma = tested on: M14 melanoma
MALME-3M melanoma = tested on: MALME-3M melanoma
MCF7 breast = tested on: MCF7 breast
MDA-MB-231 breast = tested on: MDA-MB-231 breast
MDA-MB-435 = tested on: MDA-MB-435
MDA-N = tested on: MDA-N
MOLT-4 leukemia = tested on: MOLT-4 leukemia
NCI-H226 lung = tested on: NCI-H226 lung
NCI-H23 lung = tested on: NCI-H23 lung
NCI-H460 lung = tested on: NCI-H460 lung
NCI-H522 lung = tested on: NCI-H522 lung
NCI/ADR-RES ovarian = tested on: NCI/ADR-RES ovarian
OVCAR-3 ovarian = tested on: OVCAR-3 ovarian
OVCAR-4 ovarian = tested on: OVCAR-4 ovarian
OVCAR-5 ovarian = tested on: OVCAR-5 ovarian
OVCAR-8 ovarian = tested on: OVCAR-8 ovarian
PC-3 prostate = tested on: PC-3 prostate
RPMI-8226 leukemia = tested on: RPMI-8226 leukemia
RXF 393 renal = tested on: RXF 393 renal
SF-268 CNS = tested on: SF-268 CNS
SF-295 CNS = tested on: SF-295 CNS
SF-539 CNS = tested on: SF-539 CNS
SK-MEL-2 melanoma = tested on: SK-MEL-2 melanoma
SK-MEL-28 melanoma = tested on: SK-MEL-28 melanoma
SK-MEL-5 melanoma = tested on: SK-MEL-5 melanoma
SK-OV-3 ovarian = tested on: SK-OV-3 ovarian
SNB-19 CNS = tested on: SNB-19 CNS
SNB-75 CNS = tested on: SNB-75 CNS
SR leukemia = tested on: SR leukemia
SW-620 colon = tested on: SW-620 colon
T-47D breast = tested on: T-47D breast
TK-10 renal = tested on: TK-10 renal
U251 CNS = tested on: U251 CNS
UACC-257 melanoma = tested on: UACC-257 melanoma
UACC-62 melanoma = tested on: UACC-62 melanoma
UO-31 renal = tested on: UO-31 renal
BT-549 breast = tested on: BT-549 breast
SN12C renal = tested on: SN12C renal

## CC(=O)[C@H]1[C@@H](OCc2ccccc2)O[N+]([O-])=C(C)[C@@H]1c1ccccc1
786-0 renal
  TGI: 31.4 µM
A498 renal
  TGI: > 100 µM
A549 NSCLC
  TGI: > 100 µM
ACHN renal
  TGI: 78.4 µM
CAKI-1 renal
  TGI: 52 µM
CCRF-CEM leukemia
  TGI: 44.1 µM
COLO 205 colon
  TGI: > 100 µM
DU-145 prostate
  TGI: > 100 µM
EKVX NSCLC
  TGI: > 100 µM
HCC-2998 colon
  TGI: > 100 µM
HCT-15 colon
  TGI: 75 µM
HL-60(TB) leukemia
  TGI: 40.8 µM
HOP-62 NSCLC
  TGI: > 100 µM
HOP-92 NSCLC
  TGI: 62.4 µM
HS 578T breast
  TGI: 72.4 µM
HT29 colon
  TGI: 33.8 µM
IGROV1 ovarian
  TGI: > 100 µM
K-562 leukemia
  TGI: 38 µM
KM12 colon
  TGI: > 100 µM
LOX IMVI melanoma
  TGI: 45.7 µM
M14 melanoma
  TGI: > 100 µM
MALME-3M melanoma
  TGI: 47 µM
MCF7 breast
  TGI: > 100 µM
MDA-MB-231 breast
  TGI: > 100 µM
MDA-MB-435
  TGI: > 100 µM
MDA-N
  TGI: > 100 µM
MOLT-4 leukemia
  TGI: 41.2 µM
NCI-H226 lung
  TGI: > 100 µM
NCI-H23 lung
  TGI: > 100 µM
NCI-H460 lung
  TGI: > 100 µM
NCI-H522 lung
  TGI: 26.4 µM
NCI/ADR-RES ovarian
  TGI: > 100 µM
OVCAR-3 ovarian
  TGI: 57.7 µM
OVCAR-4 ovarian
  TGI: > 100 µM
OVCAR-5 ovarian
  TGI: > 100 µM
OVCAR-8 ovarian
  TGI: > 100 µM
PC-3 prostate
  TGI: > 100 µM
RPMI-8226 leukemia
  TGI: 37.9 µM
RXF 393 renal
  TGI: 34.2 µM
SF-268 CNS
  TGI: > 100 µM
SF-295 CNS
  TGI: > 100 µM
SF-539 CNS
  TGI: 45.5 µM
SK-MEL-2 melanoma
  TGI: > 100 µM
SK-MEL-28 melanoma
  TGI: 98.4 µM
SK-MEL-5 melanoma
  TGI: > 100 µM
SK-OV-3 ovarian
  TGI: > 100 µM
SNB-19 CNS
  TGI: > 100 µM
SNB-75 CNS
  TGI: > 100 µM
SR leukemia
  TGI: 42 µM
SW-620 colon
  TGI: 31.7 µM
T-47D breast
  TGI: 58.1 µM
TK-10 renal
  TGI: > 100 µM
U251 CNS
  TGI: > 100 µM
UACC-257 melanoma
  TGI: > 100 µM
UACC-62 melanoma
  TGI: > 100 µM
UO-31 renal
  TGI: 40.2 µM

## COc1ccc2[nH]c3c(C)c4ccnc(NCCCN(C)CCCN)c4c(C)c3c2c1
786-0 renal
  TGI: 0.39 µM
ACHN renal
  TGI: 0.514 µM
BT-549 breast
  TGI: 3.61 µM
CAKI-1 renal
  TGI: 0.551 µM
CCRF-CEM leukemia
  TGI: > 32.1 µM
COLO 205 colon
  TGI: 0.253 µM
DU-145 prostate
  TGI: 0.652 µM
EKVX NSCLC
  TGI: 0.538 µM
HCC-2998 colon
  TGI: 0.376 µM
HCT-15 colon
  TGI: 1.47 µM
HOP-62 NSCLC
  TGI: 0.385 µM
HT29 colon
  TGI: 0.17 µM
IGROV1 ovarian
  TGI: 0.678 µM
K-562 leukemia
  TGI: > 100 µM
KM12 colon
  TGI: 0.809 µM
M14 melanoma
  TGI: 0.335 µM
MALME-3M melanoma
  TGI: 1.19 µM
MCF7 breast
  TGI: 0.313 µM
MDA-MB-231 breast
  TGI: 0.248 µM
MDA-MB-435
  TGI: 0.401 µM
MDA-N
  TGI: 0.496 µM
MOLT-4 leukemia
  TGI: > 100 µM
NCI-H226 lung
  TGI: 0.223 µM
NCI-H23 lung
  TGI: 0.87 µM
NCI-H460 lung
  TGI: 0.213 µM
NCI-H522 lung
  TGI: 0.137 µM
NCI/ADR-RES ovarian
  TGI: 2.09 µM
OVCAR-3 ovarian
  TGI: 1.54 µM
OVCAR-4 ovarian
  TGI: 0.442 µM
OVCAR-5 ovarian
  TGI: 0.725 µM
OVCAR-8 ovarian
  TGI: 0.376 µM
PC-3 prostate
  TGI: 0.712 µM
RPMI-8226 leukemia
  TGI: > 100 µM
SF-295 CNS
  TGI: 0.66 µM
SF-539 CNS
  TGI: 0.28 µM
SK-MEL-2 melanoma
  TGI: 0.809 µM
SK-MEL-28 melanoma
  TGI: 1.61 µM
SK-MEL-5 melanoma
  TGI: 0.37 µM
SK-OV-3 ovarian
  TGI: 2.47 µM
SN12C renal
  TGI: 0.257 µM
SNB-19 CNS
  TGI: 0.403 µM
SNB-75 CNS
  TGI: 0.0976 µM
SR leukemia
  TGI: > 100 µM
T-47D breast
  TGI: 0.814 µM
TK-10 renal
  TGI: 1.35 µM
UACC-257 melanoma
  TGI: 2.95 µM
UACC-62 melanoma
  TGI: 0.479 µM
UO-31 renal
  TGI: 3.23 µM
